# Assay results as given in patent publication US10358436B2, “Kinase inhibitors and method of treating cancer” (University Health Network, priority 2010, dated 2019).
# Counter-ions that a name gives are not always drawn.
# Target: Aurora A (Homo sapiens (Human), UniProt O14965)
# Assay: Aurora A inhibition assay (Z-Lyte)
# Assay type: biochemical
# Sequence of Aurora A (O14965 whole entry): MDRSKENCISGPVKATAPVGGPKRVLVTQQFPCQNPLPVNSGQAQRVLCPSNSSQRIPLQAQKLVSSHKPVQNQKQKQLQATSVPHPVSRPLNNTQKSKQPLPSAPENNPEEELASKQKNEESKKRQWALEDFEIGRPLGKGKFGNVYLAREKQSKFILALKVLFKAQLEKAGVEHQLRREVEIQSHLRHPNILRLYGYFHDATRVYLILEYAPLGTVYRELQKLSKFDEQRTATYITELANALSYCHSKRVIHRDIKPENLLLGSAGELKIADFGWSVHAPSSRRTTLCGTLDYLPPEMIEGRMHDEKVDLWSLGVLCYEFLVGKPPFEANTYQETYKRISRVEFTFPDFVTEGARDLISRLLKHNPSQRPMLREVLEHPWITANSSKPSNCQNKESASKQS
row,SMILES,inhibition at 1 µM [%]
1,"COc1ccc2c(c1)[C@]1(C[C@H]1c1ccc3c(C#Cc4cccnc4)n[nH]c3c1)C(=O)N2 (relative stereo) [Example A52, (1R*,2S*)- and (1R*,2S*)-5′-methoxy-2-(3-(pyridin-3-ylethynyl)-1H-indazol-6-yl)spiro[cyclopropane-1,3′-indolin]-2′-one]",< 50
2,"COc1ccc2c(c1)[C@]1(C[C@H]1c1ccc3c(-c4ccc(N5CCNCC5)cc4)n[nH]c3c1)C(=O)N2 (relative stereo) [Example A48, (1R*,2S*)-5′-methoxy-2-(3-(4-(piperazin-1-yl)phenyl)-1H-indazol-6-yl)spiro[cyclopropane-1,3′-indolin]-2′-one 2,2,2-trifluoroacetate]",< 50
3,"COc1ccc2c(c1)[C@]1(C[C@H]1c1ccc3c(-c4ccc(OCCn5ccnc5)cc4)n[nH]c3c1)C(=O)N2 [Example A108, (1R,2S)-2-(3-(4-(2-(1H-imidazol-1-yl)ethoxy)phenyl)-1H-indazol-6-yl)-5′-methoxyspiro[cyclopropane-1,3′-indolin]-2′-one 2,2,2-trifluoroacetate]",< 50
4,"COc1ccc2c(c1)[C@]1(C[C@H]1c1ccc3c(/C=C/c4ccc(CN5CCCOCC5)cc4)n[nH]c3c1)C(=O)N2 [Example A73, (1R,2S)-(E)-2-(3-(4-((1,4-oxazepan-4-yl)methyl)styryl)-1H-indazol-6-yl)-5′-methoxyspiro[cyclopropane-1,3′-indolin]-2′-one 2,2,2-trifluoroacetate salt]",> 50
5,"COc1ccc2c(c1)[C@]1(C[C@H]1c1ccc3c(/C=C/c4ccncc4)n[nH]c3c1)C(=O)N2 [Example A111, (1R,2S)-5′-methoxy-2-(3-((E)-2-(pyridin-4-yl)vinyl)-1H-indazol-6-yl)spiro[cyclopropane-1,3′-indolin]-2′-one 2,2,2-trifluoroacetate]",> 50
6,"CCN1CCN(c2ccc(/C=C/c3n[nH]c4cc([C@@H]5C[C@@]56C(=O)Nc5ccc(OC)cc56)ccc34)cc2)CC1 (relative stereo) [Example A188, (1R*,2S*)-(E)-2-(3-(4-(4-ethylpiperazin-1-yl)styryl)-1H-indazol-6-yl)-5′-methoxyspiro[cyclopropane-1,3′-indolin]-2′-one 2,2,2-trifluoroacetate]",> 50
7,"O=C1Nc2ccccc2[C@]12C[C@H]2c1ccc2c(/C=C/c3ccc(CCN4CCOCC4)cc3)n[nH]c2c1 [Example A205, (1R,2S)-(E)-2-(3-(4-(2-morpholinoethyl)styryl)-1H-indazol-6-yl)spiro[cyclopropane-1,3′-indolin]-2′-one 2,2,2-trifluoroacetate]",> 50
8,"O=C1Nc2ccccc2[C@]12C[C@H]2c1ccc2c(/C=C/c3cccnc3)n[nH]c2c1 (relative stereo) [Example A28, (1R*,2S*)-2-(3-((E)-2-(pyridin-3-yl)vinyl)-1H-indazol-6-yl)spiro-[cyclopropane-1,3′-indolin]-2′-one]",> 50
9,"COc1ccc2c(c1)[C@]1(C[C@H]1c1ccc3c(/C=C/c4cccnc4)n[nH]c3c1)C(=O)N2 [Example A197, (1R,2S)-5′-methoxy-2-(3-((E)-2-(pyridin-3-yl)vinyl)-1H-indazol-6-yl)spiro[cyclopropane-1,3′-indolin]-2′-one]",> 50
10,"O=C1Nc2ccccc2[C@]12C[C@H]2c1ccc2c(/C=C/c3ccc(CN4CCCCC4)nc3)n[nH]c2c1 (relative stereo) [Example A63, (1R*,2S*)-(E)-2-(3-((E)-2-(6-(piperidin-1-ylmethyl)pyridin-3-yl)vinyl)-1H-indazol-6-yl)spiro[cyclopropane-1,3′-indolin]-2′-one 2,2,2-trifluoroacetate salt]",> 50
11,"COc1ccc2c(c1)[C@]1(C[C@H]1c1ccc3c(/C=C/c4cccc(CN5CCOCC5)c4)n[nH]c3c1)C(=O)N2 (relative stereo) [Example A133, (1R*,2S*)-5′-methoxy-2-(3-(3-(morpholinomethyl)styryl)-1H-indazol-6-yl)spiro[cyclopropane-1,3′-indolin]-2′-one 2,2,2-trifluoroacetate]",> 50
12,"O=C1Nc2ccccc2[C@@]12C[C@@H]2c1ccc2c(/C=C/c3cccnc3)n[nH]c2c1 [Example A30, (1S,2R)-2-(3-((E)-2-(pyridin-3-yl)vinyl)-1H-indazol-6-yl)spiro[cyclopropane-1,3′-indolin]-2′-one]",> 50
13,"Cc1ccc2c(c1)[C@]1(C[C@H]1c1ccc3c(/C=C/c4ccc(CN5CCOCC5)cc4)n[nH]c3c1)C(=O)N2 (relative stereo) [Example A196, (1R*,2S*)-(E)-5′-methyl-2-(3-(4-(morpholinomethyl)styryl)-1H-indazol-6-yl)spiro[cyclopropane-1,3′-indolin]-2′-one 2,2,2-trifluoroacetate]",> 50
14,"O=C1Nc2ccccc2[C@]12C[C@H]2c1ccc2c(/C=C/c3ccc(CN4CCCC4)cc3)n[nH]c2c1 [Example A61, (1R,2S)-(E)-2-(3-(4-(pyrolidin-1-ylmethyl)styryl)-1H-indazol-6-yl)spiro[cyclopropane-1,3′-indolin]-2′-one 2,2,2-trifluoroacetate]",> 50
15,"O=C1Nc2ccccc2[C@]12C[C@H]2c1ccc2c(I)n[nH]c2c1 (relative stereo) [Example A9, (1R*,2S*)-2-(3-iodo-1H-indazol-6-yl)spiro[cyclopropane-1,3′-indolin]-2′-one]",< 50
16,"CCN(CC)Cc1c(F)cc(/C=C/c2n[nH]c3cc([C@@H]4C[C@@]45C(=O)Nc4ccccc45)ccc23)cc1F [Example A221, (1R,2S)-(E)-2-(3-(4-((diethylamino)methyl)-3,5-difluorostyryl)-1H-indazol-6-yl)spiro[cyclopropane-1,3′-indolin]-2′-one 2,2,2-trifluoroacetate]",> 50
17,"COc1ccc2c(c1)[C@]1(C[C@H]1c1ccc3c(-c4ccc(CCN5CCOCC5)cc4)n[nH]c3c1)C(=O)N2 (relative stereo) [Example A159, (1R*,2S*)-5′-methoxy-2-(3-(4-(2-morpholinoethyl)phenyl)-1H-indazol-6-yl)spiro[cyclopropane-1,3′-indolin]-2′-one 2,2,2-trifluoroacetate]",< 50
18,"O=C1Nc2ccccc2[C@]12C[C@H]2c1ccc2c(/C=C/c3cccnc3)n[nH]c2c1 [Example A29, (1R,2S)-2-(3-((E)-2-(pyridin-3-yl)vinyl)-1H-indazol-6-yl)spiro[cyclopropane-1,3′-indolin]-2′-one]",> 50
19,"COc1ccc2c(c1)[C@]1(C[C@H]1c1ccc3c(-c4ccc5nccn5c4)n[nH]c3c1)C(=O)N2 [Example A107, (1R,2S)-2-(3-(imidazo[1,2-a]pyridin-6-yl)-1H-indazol-6-yl)-5′-methoxyspiro[cyclopropane-1,3′-indolin]-2′-one 2,2,2-trifluoroacetate]",< 50
20,"CN(C)Cc1ccc(/C=C/c2n[nH]c3cc([C@@H]4C[C@@]45C(=O)N(CC(N)=O)c4ccccc45)ccc23)cc1 (relative stereo) [Example A160, 2-((1R*,2S*)-(E)-2-(3-(4-((dimethylamino)methyl)styryl)-1H-indazol-6-yl)-2′-oxospiro[cyclopropane-1,3′-indoline]-1′-yl)acetamide 2,2,2-trifluoroacetate]",> 50
